# Measured values from ChEMBL document CHEMBL3797052 (Eur J Med Chem, 2016).
# System: not listed separately
# Experiment: Antiproliferative activity against human DU145 cells assessed as growth inhibition after 48 hrs by sulforhodamine B assay
# Type: functional
# Details: DU-145, 48 h
row,Compound,GI50
1,CNC(=O)c1cc(Oc2ccc3nc(NC(=O)Nc4ccc(Cl)c(C(F)(F)F)c4)sc3c2)ccn1,2.24 µM

# Same assay, conditions: DU-145, 48 h, read-out: LC50 (the source's name)
row,Compound,CC50
1,CNC(=O)c1cc(Oc2ccc3nc(NC(=O)Nc4ccc(Cl)c(C(F)(F)F)c4)sc3c2)ccn1,> 100 µM

# System: not listed separately
# Experiment: Antiproliferative activity against human TK10 cells assessed as growth inhibition after 48 hrs by sulforhodamine B assay
# Type: functional
# Details: TK-10, 48 h
Compound,GI50,TGI
CNC(=O)c1cc(Oc2ccc3nc(NC(=O)Nc4ccc(Cl)c(C(F)(F)F)c4)sc3c2)ccn1,2.29 µM,4.62 µM

# Same assay, conditions: TK-10, 48 h, read-out: LC50 (the source's name)
row,Compound,CC50
1,CNC(=O)c1cc(Oc2ccc3nc(NC(=O)Nc4ccc(Cl)c(C(F)(F)F)c4)sc3c2)ccn1,9.32 µM

# System: ACHN
# Experiment: Antiproliferative activity against human ACHN cells assessed as cell growth at 10^-6 M after 48 hrs by sulforhodamine B assay
# Type: functional
# Details: read-out: Activity
row,Compound,growth at 1 µM
1,CNC(=O)c1cc(Oc2ccc3nc(NC(=O)Nc4ccc(Cl)c(C(F)(F)F)c4)sc3c2)ccn1,93%

# System: not listed separately
# Experiment: Antiproliferative activity against human UACC62 cells assessed as cell growth at 10^-8 M after 48 hrs by sulforhodamine B assay
# Type: functional
# Details: UACC-62, 48 h, read-out: Activity
row,Compound,growth at 0.01 µM
1,CNC(=O)c1cc(Oc2ccc3nc(NC(=O)Nc4ccc(Cl)c(C(F)(F)F)c4)sc3c2)ccn1,95%

# System: not listed separately
# Experiment: Antiproliferative activity against human PC3 cells assessed as cell growth at 10^-4 M after 48 hrs by sulforhodamine B assay
# Type: functional
# Details: PC-3, 48 h, read-out: Activity
row,Compound,growth at 100 µM
1,CNC(=O)c1cc(Oc2ccc3nc(NC(=O)Nc4ccc(Cl)c(C(F)(F)F)c4)sc3c2)ccn1,7%

# System: SK-MEL-28
# Experiment: Antiproliferative activity against human SK-MEL-28 cells assessed as cell growth at 10^-6 M after 48 hrs by sulforhodamine B assay
# Type: functional
# Details: SK-MEL-28, 48 h, read-out: Activity
row,Compound,growth at 1 µM
1,CNC(=O)c1cc(Oc2ccc3nc(NC(=O)Nc4ccc(Cl)c(C(F)(F)F)c4)sc3c2)ccn1,78%

# System: NCI-H460
# Experiment: Antiproliferative activity against human NCI-H460 cells assessed as cell growth at 10^-4 M after 48 hrs by sulforhodamine B assay
# Type: functional
# Details: NCI-H460, 48 h, read-out: Activity
row,Compound,growth at 100 µM
1,CNC(=O)c1cc(Oc2ccc3nc(NC(=O)Nc4ccc(Cl)c(C(F)(F)F)c4)sc3c2)ccn1,10%

# System: U-251
# Experiment: Antiproliferative activity against human U251 cells assessed as growth inhibition after 48 hrs by sulforhodamine B assay
# Type: functional
# Details: U-251, 48 h
Compound,GI50,TGI
CNC(=O)c1cc(Oc2ccc3nc(NC(=O)Nc4ccc(Cl)c(C(F)(F)F)c4)sc3c2)ccn1,1.79 µM,3.75 µM

# System: NCI-H226
# Experiment: Antiproliferative activity against human NCI-H226 cells assessed as cell growth at 10^-6 M after 48 hrs by sulforhodamine B assay
# Type: functional
# Details: NCI-H226, 48 h, read-out: Activity
row,Compound,growth at 1 µM
1,CNC(=O)c1cc(Oc2ccc3nc(NC(=O)Nc4ccc(Cl)c(C(F)(F)F)c4)sc3c2)ccn1,98%

# System: not listed separately
# Experiment: Antiproliferative activity against human IGROV1 cells assessed as cell growth at 10^-4 M after 48 hrs by sulforhodamine B assay
# Type: functional
# Details: IGROV-1, 48 h, read-out: Activity
row,Compound,growth at 100 µM
1,CNC(=O)c1cc(Oc2ccc3nc(NC(=O)Nc4ccc(Cl)c(C(F)(F)F)c4)sc3c2)ccn1,-35%

# System: not listed separately
# Experiment: Antiproliferative activity against human BT549 cells assessed as growth inhibition after 48 hrs by sulforhodamine B assay
# Type: functional
# Details: BT-549, 48 h
Compound,GI50,TGI
CNC(=O)c1cc(Oc2ccc3nc(NC(=O)Nc4ccc(Cl)c(C(F)(F)F)c4)sc3c2)ccn1,2.64 µM,9.73 µM

# Same assay, conditions: BT-549, 48 h, read-out: LC50 (the source's name)
row,Compound,CC50
1,CNC(=O)c1cc(Oc2ccc3nc(NC(=O)Nc4ccc(Cl)c(C(F)(F)F)c4)sc3c2)ccn1,> 100 µM

# System: not listed separately
# Experiment: Antiproliferative activity against human SF539 cells assessed as cell growth at 10^-7 M after 48 hrs by sulforhodamine B assay
# Type: functional
# Details: SF-539, 48 h, read-out: Activity
row,Compound,growth at 0.1 µM
1,CNC(=O)c1cc(Oc2ccc3nc(NC(=O)Nc4ccc(Cl)c(C(F)(F)F)c4)sc3c2)ccn1,97%

# System: SN12C
# Experiment: Antiproliferative activity against human SN12C cells assessed as cell growth at 10^-8 M after 48 hrs by sulforhodamine B assay
# Type: functional
# Details: read-out: Activity
row,Compound,growth at 0.01 µM
1,CNC(=O)c1cc(Oc2ccc3nc(NC(=O)Nc4ccc(Cl)c(C(F)(F)F)c4)sc3c2)ccn1,97%

# System: not listed separately
# Experiment: Antiproliferative activity against human OVCAR4 cells assessed as cell growth at 10^-6 M after 48 hrs by sulforhodamine B assay
# Type: functional
# Details: OVCAR-4, 48 h, read-out: Activity
row,Compound,growth at 1 µM
1,CNC(=O)c1cc(Oc2ccc3nc(NC(=O)Nc4ccc(Cl)c(C(F)(F)F)c4)sc3c2)ccn1,82%

# System: not listed separately
# Experiment: Antiproliferative activity against human HCC2998 cells assessed as growth inhibition after 48 hrs by sulforhodamine B assay
# Type: functional
# Details: HCC 2998, 48 h
row,Compound,TGI
1,CNC(=O)c1cc(Oc2ccc3nc(NC(=O)Nc4ccc(Cl)c(C(F)(F)F)c4)sc3c2)ccn1,> 100 µM

# Same assay, conditions: HCC 2998, 48 h, read-out: LC50 (the source's name)
row,Compound,CC50
1,CNC(=O)c1cc(Oc2ccc3nc(NC(=O)Nc4ccc(Cl)c(C(F)(F)F)c4)sc3c2)ccn1,> 100 µM

# Target: CYP2C19 (Homo sapiens, UniProt P33261)
# Sequence (P33261 whole entry): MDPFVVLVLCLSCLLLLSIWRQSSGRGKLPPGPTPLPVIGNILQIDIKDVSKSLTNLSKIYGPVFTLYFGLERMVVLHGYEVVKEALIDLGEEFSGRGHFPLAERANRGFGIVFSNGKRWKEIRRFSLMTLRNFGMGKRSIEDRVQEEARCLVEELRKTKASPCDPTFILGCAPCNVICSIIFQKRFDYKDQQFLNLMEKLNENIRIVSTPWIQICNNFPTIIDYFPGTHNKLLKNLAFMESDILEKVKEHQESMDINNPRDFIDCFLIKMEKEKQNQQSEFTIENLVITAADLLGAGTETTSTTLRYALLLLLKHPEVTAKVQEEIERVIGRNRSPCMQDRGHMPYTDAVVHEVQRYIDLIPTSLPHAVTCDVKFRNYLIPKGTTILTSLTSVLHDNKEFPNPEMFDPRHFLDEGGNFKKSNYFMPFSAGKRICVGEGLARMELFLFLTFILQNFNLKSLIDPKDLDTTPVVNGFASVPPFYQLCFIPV
# Experiment: Inhibition of recombinant human CYP2C19 assessed as remaining enzyme activity at 10 uM after 5 mins in presence of NADP by fluorescence plate reader analysis
# Type: ADME
# Details: read-out: Activity
row,Compound,"activity at 5 min, 10 µM"
1,CNC(=O)c1cc(Oc2ccc3nc(NC(=O)Nc4ccc(Cl)c(C(F)(F)F)c4)sc3c2)ccn1,79.9%
